In this assay the target is T1, recombinant N-terminal MLH1 (residues 15-340) (Homo sapiens, UniProt P40692).
T1 construct: recombinant N-terminal MLH1 (residues 15-340)
T1 sequence (P40692 15-340): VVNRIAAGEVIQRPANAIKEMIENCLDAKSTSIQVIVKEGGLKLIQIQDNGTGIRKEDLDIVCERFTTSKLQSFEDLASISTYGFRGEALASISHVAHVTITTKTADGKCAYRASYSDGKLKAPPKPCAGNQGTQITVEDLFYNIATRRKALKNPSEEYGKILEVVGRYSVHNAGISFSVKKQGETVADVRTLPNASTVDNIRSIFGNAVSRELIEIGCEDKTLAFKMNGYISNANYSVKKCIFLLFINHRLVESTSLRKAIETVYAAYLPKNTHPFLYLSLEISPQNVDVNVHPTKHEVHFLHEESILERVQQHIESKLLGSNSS
In words: Fluorescence Polarisation Assay for MLH1. Type of assay: binding. Particulars: 100 nM N-terminal MLH1, 5 nM probe compound. In outline: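 Fluorescence polarisation displacement: 100 nM MLH1 (15-340) preincubated 30 min at room temperature with compound, then 5 nM rhodamine-labelled probe added and read immediately. Buffer 25 mM HEPES pH 7.5, 250 mM NaCl, 10 mM MgCl2, 0.01% Triton X-100, 5 mM DTT; normalised to no-inhibitor and no-enzyme controls.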
In general terms: Fluorescence polarisation rises when a labelled molecule tumbles more slowly, as on binding a larger partner.

The structures appear in SMILES notation. A value given as a limit tells only on which side of the number the result lay.

Results on 31 molecules are retold here after patent US20260217687A1 (NeoPhore Limited, priority 2023, published 2026).

As for `COCCOc1ccc2c(c1)CN(C(=O)c1c(O)cc(C(F)F)cc1OCc1ccccc1)C2` [Example 4.77, (2-(Benzyloxy)-4-(difluoromethyl)-6-hydroxyphenyl)(5-(2-methoxyethoxy)isoindolin-2-yl)methanone], the IC50 (commonly the concentration needed to halve the response being measured) lay within 100 to 1000 nM. `O=C(c1c(O)cc(C(F)F)cc1OCc1ccccc1)N1Cc2ccc(OC3CCOCC3)cc2C1` [Example 4.78, (2-(Benzyloxy)-4-(difluoromethyl)-6-hydroxyphenyl) (5-((tetrahydro-2H-pyran-4-yl)oxy)isoindolin-2-yl)methanone]: the IC50 lay within 100 to 1000 nM. On to `O=C(c1c(O)cc(C(F)F)cc1OCc1ccccc1)N1Cc2cccc(OC3CCOC3)c2C1` (stereo not shown) [Example 4.79, (2-(Benzyloxy)-4-(difluoromethyl)-6-hydroxyphenyl)(4-((tetrahydrofuran-3-yl)oxy)isoindolin-2-yl)methanone], for which the IC50 lay in the range of 1000 to 10000 nM. On to `O=C(c1c(O)cc(C(F)F)cc1OCc1ccccc1)N1CCc2cccc(OC3CCOC3)c2C1` (stereo not shown) [Example 4.80], for which the IC50 was 1000 to 10000 nM. As for `O=C(c1c(O)cc(F)cc1OCc1ccccc1)N1Cc2cccc(N[C@H]3CCOC3)c2C1` [Example 5, (S)-(2-(Benzyloxy)-4-fluoro-6-hydroxyphenyl)(4-((tetrahydrofuran-3-yl)amino)isoindolin-2-yl)methanone], the concentration for half-maximal inhibition (IC50) was in the range of 100 to 1000 nM. In the case of `O=C(c1c(O)cc(F)cc1OCc1ccccc1)N1Cc2cccc(N[C@@H]3CCOC3)c2C1` [Example 6, (R)-(2-(Benzyloxy)-4-fluoro-6-hydroxyphenyl)(4-((tetrahydrofuran-3-yl)amino)isoindolin-2-yl)methanone], the IC50 fell in the range of 1000 to 10000 nM. Turning to `O=C(c1c(O)cc(Cl)cc1OCc1ccccc1)N1Cc2cccc(N[C@@H]3CCOC3)c2C1` [Example 7, (R)-(2-(Benzyloxy)-4-chloro-6-hydroxyphenyl)(4-((tetrahydrofuran-3-yl)amino)isoindolin-2-yl)methanone], the IC50 fell in the range of 1000 to 10000 nM. With `O=C(c1c(O)cc(Cl)cc1OCc1ccccc1)N1Cc2cccc(N[C@H]3CCOC3)c2C1` [Example 8, (S)-(2-(Benzyloxy)-4-chloro-6-hydroxyphenyl)(4-((tetrahydrofuran-3-yl)amino)isoindolin-2-yl)methanone], the IC50 was 100 to 1000 nM. The result for `CN(C)CCOc1cc2c(c(N[C@@H]3CCOC3)c1)CN(C(=O)c1c(O)cc(Cl)cc1OCc1ccccc1)C2` [Example 9, (R)-(2-(Benzyloxy)-4-chloro-6-hydroxyphenyl)(6-(2-(dimethylamino)ethoxy)-4-((tetrahydrofuran-3-yl)amino)isoindolin-2-yl)methanone] reads 100 to 1000 nM. As to `CN(C)CCOc1cc2c(c(N[C@H]3CCOC3)c1)CN(C(=O)c1c(O)cc(Cl)cc1OCc1ccccc1)C2` [Example 10, (S)-(2-(Benzyloxy)-4-chloro-6-hydroxyphenyl)(6-(2-(dimethylamino)ethoxy)-4-((tetrahydrofuran-3-yl)amino)isoindolin-2-yl)methanone], the IC50 is below 100 nM. Regarding `COc1cc2c(c(N[C@@H]3CCOC3)c1)CN(C(=O)c1c(O)cc(Cl)cc1OCc1ccccc1)C2` [Example 10.1, (R)-(2-(Benzyloxy)-4-chloro-6-hydroxyphenyl)(6-methoxy-4-((tetrahydrofuran-3-yl)amino)isoindolin-2-yl)methanone], the IC50 lay within 1000 to 10000 nM. `COc1cc2c(c(N[C@H]3CCOC3)c1)CN(C(=O)c1c(O)cc(Cl)cc1OCc1ccccc1)C2` [Example 10.2, (S)-(2-(Benzyloxy)-4-chloro-6-hydroxyphenyl)(6-methoxy-4-((tetrahydrofuran-3-yl)amino)isoindolin-2-yl)methanone]: the IC50 is 100 to 1000 nM. With `CN1CC(Nc2cccc3c2CN(C(=O)c2c(O)cc(C#N)cc2OCc2ccccc2)C3)CC1=O` (stereo not shown) [Example 10.3, 3-(Benzyloxy)-5-hydroxy-4-(4-((1-methyl-5-oxopyrrolidin-3-yl)amino)isoindoline-2-carbonyl)benzonitrile], the IC50 lay in the range of 100 to 1000 nM.

As to `N#Cc1cc(O)c(C(=O)N2Cc3cccc(Nc4cncnc4)c3C2)c(OCc2ccccc2)c1` [Example 10.4, 3-(Benzyloxy)-5-hydroxy-4-(4-(pyrimidin-5-ylamino)isoindoline-2-carbonyl)benzonitrile], the IC50 was 1000 to 10000 nM.

On to `CC(=O)N1CC[C@@H](Nc2cccc3c2CN(C(=O)c2c(O)cc(C#N)cc2OCc2ccccc2)C3)C1` [Example 10.5, (R)-4-(4-((1-Acetylpyrrolidin-3-yl)amino)isoindoline-2-carbonyl)-3-(benzyloxy)-5-hydroxybenzonitrile], for which the half-inhibitory concentration (IC50) is 100 to 1000 nM. Take `CC(=O)N1CC[C@H](Nc2cccc3c2CN(C(=O)c2c(O)cc(C#N)cc2OCc2ccccc2)C3)C1` [Example 10.6, (S)-4-(4-((1-Acetylpyrrolidin-3-yl)amino)isoindoline-2-carbonyl)-3-(benzyloxy)-5-hydroxybenzonitrile]: the IC50 fell in the range of 100 to 1000 nM. `N#Cc1cc(O)c(C(=O)N2Cc3cccc(NCc4cocn4)c3C2)c(OCc2ccccc2)c1` [Example 10.9, 3-(Benzyloxy)-5-hydroxy-4-(4-((oxazol-4-ylmethyl)amino)isoindoline-2-carbonyl)benzonitrile]: the IC50 lay in the range of 100 to 1000 nM. In the case of `N#Cc1cc(O)c(C(=O)N2Cc3cccc(NCC4CCOC4)c3C2)c(OCc2ccccc2)c1` (stereo not shown) [Example 10.10, 3-(Benzyloxy)-5-hydroxy-4-(4-(((tetrahydrofuran-3-yl)methyl)amino)isoindoline-2-carbonyl)benzonitrile], the IC50 was in the range of 1000 to 10000 nM. On to `COc1cccc2c1CN(C(=O)c1c(O)cc(C#N)cc1OCc1ccccc1)C2` [Example 10.11, 3-(Benzyloxy)-5-hydroxy-4-(4-methoxyisoindoline-2-carbonyl)benzonitrile], for which the IC50 lay in the range of 1000 to 10000 nM. On to `N#Cc1cc(O)c(C(=O)N2CCc3cccc(N[C@@H]4CCOC4)c3C2)c(OCc2ccccc2)c1` [Example 10.12, (R)-3-(Benzyloxy)-5-hydroxy-4-(8-((tetrahydrofuran-3-yl)amino)-1,2,3,4-tetrahydroisoquinoline-2-carbonyl)benzonitrile], for which the IC50 lay in the range of 1000 to 10000 nM. The result for `COc1cc2c(c(N[C@@H]3CCOC3)c1)CN(C(=O)c1c(O)cc(C#N)cc1OCc1ccccc1)C2` [Example 10.13, (R)-3-(Benzyloxy)-5-hydroxy-4-(6-methoxy-4-((tetrahydrofuran-3-yl)amino)isoindoline-2-carbonyl)benzonitrile] reads 100 to 1000 nM. Take `COc1cc2c(c(N[C@H]3CCOC3)c1)CN(C(=O)c1c(O)cc(C#N)cc1OCc1ccccc1)C2` [Example 10.14, (S)-3-(Benzyloxy)-5-hydroxy-4-(6-methoxy-4-((tetrahydrofuran-3-yl)amino)isoindoline-2-carbonyl)benzonitrile]: the IC50 lay within 100 to 1000 nM.

For `CN(C)Cc1ccc2c(c1)CN(C(=O)c1c(O)cc(C#N)cc1OCc1ccccc1)C2` [Example 10.15, 3-(Benzyloxy)-4-(5-((dimethylamino)methyl)isoindoline-2-carbonyl)-5-hydroxybenzonitrile], the IC50 lay in the range of 1000 to 10000 nM. The result for `CC(=O)N1CCC(Nc2cccc3c2CN(C(=O)c2c(O)cc(C#N)cc2OCc2ccccc2)C3)CC1` [Example 10.16, 4-(4-((1-Acetylpiperidin-4-yl)amino)isoindoline-2-carbonyl)-3-(benzyloxy)-5-hydroxybenzonitrile] reads 100 to 1000 nM; that for `CC(=O)N1CCC[C@@H](Nc2cccc3c2CN(C(=O)c2c(O)cc(C#N)cc2OCc2ccccc2)C3)C1` [Example 10.17, (R)-4-(4-((1-Acetylpiperidin-3-yl)amino)isoindoline-2-carbonyl)-3-(benzyloxy)-5-hydroxybenzonitrile], 1000 to 10000 nM.

Take `CC(=O)N1CCC[C@H](Nc2cccc3c2CN(C(=O)c2c(O)cc(C#N)cc2OCc2ccccc2)C3)C1` [Example 10.18, (S)-4-(4-((1-Acetylpiperidin-3-yl)amino)isoindoline-2-carbonyl)-3-(benzyloxy)-5-hydroxybenzonitrile]: the IC50 fell in the range of 100 to 1000 nM. To `N#Cc1cc(O)c(C(=O)N2Cc3cccc(NC4COC(=O)C4)c3C2)c(OCc2ccccc2)c1` (stereo not shown) [Example 10.19, 3-(Benzyloxy)-5-hydroxy-4-(4-((5-oxotetrahydrofuran-3-yl)amino)isoindoline-2-carbonyl)benzonitrile] belongs 100 to 1000 nM.

Consider `CN1CC(Nc2cccc3c2CN(C(=O)c2c(O)cc(Cl)cc2OCc2ccccc2)C3)C1` [Example 10.20, (2-(Benzyloxy)-4-chloro-6-hydroxyphenyl)(4-((1-methylazetidin-3-yl)amino)isoindolin-2-yl)methanone], for which the IC50 was 100 to 1000 nM. The result for `CN(C)Cc1ccc2c(n1)CN(C(=O)c1c(O)cc(Cl)cc1OCc1ccccc1)C2` [Example 10.21] reads 1000 to 10000 nM; that for `CN(C)CCOc1ccc2c(c1)CCN(C(=O)c1c(O)cc(Cl)cc1OCc1ccccc1)C2` [Example 10.22, (2-(Benzyloxy)-4-chloro-6-hydroxyphenyl)(6-(2-(dimethylamino)ethoxy)-3,4-dihydroisoquinolin-2(1H)-yl)methanone], 1000 to 10000 nM. Turning to `CC(=O)N1CC(Nc2cccc3c2CN(C(=O)c2c(O)cc(F)cc2OCc2ccccc2)C3)C1` [Example 10.23, 1-(3-((2-(2-(Benzyloxy)-4-fluoro-6-hydroxybenzoyl)isoindolin-4-yl)amino)azetidin-1-yl)ethan-1-one], the IC50 lay within 100 to 1000 nM.
